Measurements from PubChem BioAssay AID2060897 (Molecular Pharmacology Branch, DTP, NCI, 2025).

Tested on: 966289-007-R4-J1-PDC complex spheroid viability
Test: Anticancer human tumor 966289-007-R4-J1-PDC patient-derived pancreatic adenocarcinoma cell line growth inhibition [RAS]
Details: for IC50: curve of first compound; for viability, T/C: stronger effect = lower value
In short: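 Tumour cells grown as complex spheroids with HUVEC endothelial cells and mesenchymal stem cells, treated with RAS pathway inhibitor combinations. Each agent spans half-log steps from near clinical Cmax, or 10 microM where Cmax is unknown.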
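Note: spheroids exposed to agents for one week before readout.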
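Throughout, for viability, T/C: percent viability relative to DMSO vehicle control wells as 100%.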

`CCC(CC)c1cc(NC2CCC(N)C2)n2nccc2n1` (configuration not stated) + C#Cc1c(F)ccc2cc(O)cc(-c3ncc4c(N5CC6CCC(C5)N6)nc(OCC56CCCN5CC(F)C6)nc4c3F)c12 gave an IC50 (second compound 0.0316 µM) of 1800 nM, an IC50 (second compound 0.1 µM) of 1870 nM and an IC50 (second compound 0.316 µM) of 1880 nM. The IC50 (second compound 1 µM) was 1880 nM, the IC50 (second compound 3.16 µM) was 1900 nM and the IC50 (second compound 10 µM) was 1810 nM. It also gave a viability, T/C (second compound 0.0316 µM, first compound 0.0316 µM) of 99.4%, a viability, T/C (second compound 0.0316 µM, first compound 0.1 µM) of 87.7% and a viability, T/C (second compound 0.0316 µM, first compound 0.316 µM) of 97.2%. For the same compound, the viability, T/C (second compound 0.0316 µM, first compound 1 µM) was 111%, the viability, T/C (second compound 0.0316 µM, first compound 3.16 µM) was 2.83% and the viability, T/C (second compound 0.0316 µM, first compound 10 µM) was 2.78%. It also gave a viability, T/C (second compound 0.1 µM, first compound 0.0316 µM) of 91.1%, a viability, T/C (second compound 0.1 µM, first compound 0.1 µM) of 97.8% and a viability, T/C (second compound 0.1 µM, first compound 0.316 µM) of 106%. For the same compound, the viability, T/C (second compound 0.1 µM, first compound 1 µM) was 133%, the viability, T/C (second compound 0.1 µM, first compound 3.16 µM) was 2.38% and the viability, T/C (second compound 0.1 µM, first compound 10 µM) was 2.61%. For the same compound, the viability, T/C (second compound 0.316 µM, first compound 0.0316 µM) was 93%, the viability, T/C (second compound 0.316 µM, first compound 0.1 µM) was 95.1% and the viability, T/C (second compound 0.316 µM, first compound 0.316 µM) was 106%. For the same compound, the viability, T/C (second compound 0.316 µM, first compound 1 µM) was 137%, the viability, T/C (second compound 0.316 µM, first compound 3.16 µM) was 2.97% and the viability, T/C (second compound 0.316 µM, first compound 10 µM) was 2.55%. For the same compound, the viability, T/C (second compound 1 µM, first compound 0.0316 µM) was 90.4%, the viability, T/C (second compound 1 µM, first compound 0.1 µM) was 93.1% and the viability, T/C (second compound 1 µM, first compound 0.316 µM) was 116%. For the same compound, the viability, T/C (second compound 1 µM, first compound 1 µM) was 127%, the viability, T/C (second compound 1 µM, first compound 3.16 µM) was 2.97% and the viability, T/C (second compound 1 µM, first compound 10 µM) was 2.86%. The viability, T/C (second compound 3.16 µM, first compound 0.0316 µM) was 100%, the viability, T/C (second compound 3.16 µM, first compound 0.1 µM) was 94.9% and the viability, T/C (second compound 3.16 µM, first compound 0.316 µM) was 116%. The viability, T/C (second compound 3.16 µM, first compound 1 µM) was 126%, the viability, T/C (second compound 3.16 µM, first compound 3.16 µM) was 2.6% and the viability, T/C (second compound 3.16 µM, first compound 10 µM) was 2.57%. The viability, T/C (second compound 10 µM, first compound 0.0316 µM) was 86.1%, the viability, T/C (second compound 10 µM, first compound 0.1 µM) was 88.7% and the viability, T/C (second compound 10 µM, first compound 0.316 µM) was 111%. For the same compound, the viability, T/C (second compound 10 µM, first compound 1 µM) was 122%, the viability, T/C (second compound 10 µM, first compound 3.16 µM) was 0.62% and the viability, T/C (second compound 10 µM, first compound 10 µM) was 0.86%.
